Legend:
[1] = molecular target: Orphan methyltransferase M.SssI (Spiroplasma monobiae, UniProt P15840); test: Inhibition of recombinant CpG methylase M.SssI
[2] = molecular target: DNA (cytosine-5)-methyltransferase 1 (Homo sapiens, UniProt P26358); test: Inhibitory activity against DNA methyl transferase in leukemic NALM6 cells; type: cell-based, NALM-6
Chain of DNA (cytosine-5)-methyltransferase 1 (P26358 whole entry): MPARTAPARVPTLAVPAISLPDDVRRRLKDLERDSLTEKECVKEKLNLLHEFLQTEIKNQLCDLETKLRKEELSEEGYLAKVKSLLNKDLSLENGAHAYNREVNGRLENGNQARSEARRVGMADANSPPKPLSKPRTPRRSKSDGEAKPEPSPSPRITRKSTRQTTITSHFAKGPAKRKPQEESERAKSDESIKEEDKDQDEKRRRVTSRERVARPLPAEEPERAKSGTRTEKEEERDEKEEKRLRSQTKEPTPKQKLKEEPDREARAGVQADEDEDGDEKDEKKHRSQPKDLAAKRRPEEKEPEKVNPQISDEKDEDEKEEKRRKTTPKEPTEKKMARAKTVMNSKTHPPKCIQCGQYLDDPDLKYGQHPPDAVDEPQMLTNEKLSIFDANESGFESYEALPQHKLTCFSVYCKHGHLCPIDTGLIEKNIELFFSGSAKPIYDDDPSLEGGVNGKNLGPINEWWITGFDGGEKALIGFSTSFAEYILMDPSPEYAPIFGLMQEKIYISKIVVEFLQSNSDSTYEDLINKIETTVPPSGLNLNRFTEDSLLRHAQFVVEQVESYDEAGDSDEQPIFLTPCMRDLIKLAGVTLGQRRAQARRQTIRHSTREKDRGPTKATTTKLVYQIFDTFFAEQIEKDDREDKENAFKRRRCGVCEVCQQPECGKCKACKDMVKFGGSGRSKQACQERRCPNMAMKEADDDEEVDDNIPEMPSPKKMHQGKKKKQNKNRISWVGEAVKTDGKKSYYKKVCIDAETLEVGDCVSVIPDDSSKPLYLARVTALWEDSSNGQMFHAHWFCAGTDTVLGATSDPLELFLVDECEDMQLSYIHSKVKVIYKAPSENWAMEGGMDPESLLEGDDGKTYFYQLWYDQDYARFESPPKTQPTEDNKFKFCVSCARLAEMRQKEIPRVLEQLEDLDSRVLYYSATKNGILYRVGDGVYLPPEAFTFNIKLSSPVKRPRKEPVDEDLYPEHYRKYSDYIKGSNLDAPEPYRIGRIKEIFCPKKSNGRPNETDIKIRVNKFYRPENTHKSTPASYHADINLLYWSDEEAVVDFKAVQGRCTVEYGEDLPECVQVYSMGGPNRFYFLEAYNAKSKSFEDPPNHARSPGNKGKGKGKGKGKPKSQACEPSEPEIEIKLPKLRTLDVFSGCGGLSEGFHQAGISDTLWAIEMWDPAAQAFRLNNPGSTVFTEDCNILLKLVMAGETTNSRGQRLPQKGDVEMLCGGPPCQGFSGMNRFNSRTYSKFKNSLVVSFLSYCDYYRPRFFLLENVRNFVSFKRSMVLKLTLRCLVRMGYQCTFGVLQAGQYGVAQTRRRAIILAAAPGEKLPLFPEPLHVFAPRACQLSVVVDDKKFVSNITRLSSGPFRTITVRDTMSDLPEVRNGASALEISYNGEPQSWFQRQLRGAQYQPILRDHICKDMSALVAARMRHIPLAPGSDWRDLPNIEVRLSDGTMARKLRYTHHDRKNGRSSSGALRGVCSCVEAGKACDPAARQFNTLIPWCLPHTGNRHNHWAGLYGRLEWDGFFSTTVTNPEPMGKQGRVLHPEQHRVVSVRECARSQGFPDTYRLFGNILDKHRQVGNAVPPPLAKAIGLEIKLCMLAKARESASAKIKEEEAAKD

Chain of Orphan methyltransferase M.SssI (P15840 whole entry): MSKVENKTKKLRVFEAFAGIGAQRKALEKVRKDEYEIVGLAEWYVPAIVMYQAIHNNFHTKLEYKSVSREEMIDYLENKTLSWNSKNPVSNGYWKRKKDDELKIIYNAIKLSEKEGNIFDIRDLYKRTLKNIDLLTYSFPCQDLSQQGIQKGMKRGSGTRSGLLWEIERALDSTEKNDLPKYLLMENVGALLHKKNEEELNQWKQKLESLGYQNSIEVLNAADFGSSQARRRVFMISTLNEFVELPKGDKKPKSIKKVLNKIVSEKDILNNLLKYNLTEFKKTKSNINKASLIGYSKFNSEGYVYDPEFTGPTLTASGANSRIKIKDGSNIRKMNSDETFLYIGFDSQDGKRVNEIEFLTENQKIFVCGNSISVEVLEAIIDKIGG

| IC50 [1] | IC50 [2] | Compound |
| --- | --- | --- |
| 0.4 µM | 100 µM | Cc1ccn2c(CCc3nnc4cc(C)ccn34)nnc2c1 |
| 0.6 µM | 50 µM | O=C(O)C(Cc1c[nH]c2ccccc12)N1C(=O)c2ccccc2C1=O (centres undefined) |
